According to patent US20100183692A1, “COMPOSITIONS” (priority 2007, published 2010):
Entries after “also recorded” stand apart in the source; their conditions may differ.

Tests used:
Type in all cases: cell-based
[1] = tested on: Aspergillus niger ATCC 16404 spores; experiment: Sporicidal effect of test compounds in water; settings: for Spores/ml / Reduction factor: 0.1% test compound in water, after 7 days; for Reduction factor: count of negative control divided by count of test compound; for Reduction of spore counts / sporicidal effect in water (in words): 0.1% test compound, 7 days
Protocol: The reduction factor is determined by growing a suitable test organism (Aspergillus niger for fungi, Pseudomonas aeruginosa for gram-negative bacteria and Staphylococcus aureus for gram-positive bacteria) on a suitable culture medium on agar plates, harvesting and adding to a personal care product composition in a density of 3×10^5 organism/ml and counting the surviving organisms in the probe and a negative control at defined time interval, commonly 7 days. The count of the negative control is divided by the count of the probe and thereby the reduction factor is determined (compare example 1).
Aspergillus niger ATCC 16404 spores are added to water to obtain a density of 3×10^5 spores 1 ml. In order to prepare the spores, the test strain is grown for 5 days on potato dextrose agar at room temperature. The spores are harvested with a solution containing 0.1% Tween 80, peptone 0.1% and NaCl 0.85% and the spore concentration is adjusted to the density indicated above.
Test compounds are dissolved in dipropyleneglycol to a concentration of 20%.
These stock solutions are added to 10 ml aliquots of the spore suspension to obtain a final concentration of the test compounds of 0.1%. The sporicidal effect is shown by a reduction of spore counts after 7 days.
The reduction factor is determined as follows. Aliquots of the above prepared suspension of microorganisms (here: spore suspension prepared as described above) are plated on a suitable agar medium (see above) and the developing colonies are counted both for samples with test compound and for a negative probe (water). The count of the negative control is divided by the count of the test compound and thereby the reduction factor is determined. A negative control (water) accordingly has a reduction factor of 1 (no effect on the microorganism).

[2] = tested on: Aspergillus niger ATCC 16404 spores; experiment: Sporicidal effect of a) and b) compounds in a cosmetic cream; settings: for Reduction factor: cosmetic cream
Protocol: A preservative-free cosmetic cream for application to the human skin is used (Cremor basalis, Fagron GmbH, Barsbüttel, Germany).
Test samples of cream contain different amounts of compounds a) and b) added to an aliquot of 10 g of the cream in 50 ml tubes to give a concentration (w/w) of 0.125-0.25% as shown in the table below. After addition of the compounds a) and b), the cream is thoroughly mixed to achieve a homogeneous distribution.
After 1-3 days of equilibration of the cream (storage at room temperature to achieve a homogenous partitioning of compounds between oil and water phase), to each sample 100 μl of a spore suspension of Aspergillus niger ATCC 16404 containing 3×10^7 spores/ml (prepared as described in example 1) is added. After regular test intervals (7 days), samples of 1 g cream are removed and added to 20 ml of a neutralizer solution containing 0.2% lecithin, 2% Tween 80 and 0.5% NaCl. These dilutions are vigorously shaken for 10 min until the cream is dissolved, and then aliquots of this solution are spread plated on potato dextrose agar containing 0.2% Tween 80. After a sufficient time for colonies to grow (about 48 h), the number of colony forming units (and therefore surviving spores in the cream) are counted.

[3] = tested on: Staphylococcus aureus (DSMZ 799) and Pseudomonas aeruginosa (ATCC 15442), mixed 1:1; experiment: Bactericidal effect of a) and b) compounds in a cosmetic cream
Protocol: Test samples of the same cream used in Example 2 contain different amounts of compounds a) and b) added to an aliquot of 10 g of the cream in 50 ml tubes to give a concentration (w/w) of 0.125-0.25% as shown in the table below. After addition of the compounds a) and b), the cream is thoroughly mixed to achieve a homogeneous distribution.
As test organisms Staphylococcus aureus (DSMZ 799) and Pseudomonas aeruginosa (ATCC 15442) are used. The strains are grown overnight in Mueller-Hinton broth and adjusted to a cell density of 1×10^8 cfu (colony forming units) per ml.
The two bacterial strains are mixed in a ratio of 1:1 and 100 μl of this mixed inoculum is added to 10 ml aliquots of the cosmetic cream.
The resulting mixtures are incubated at room temperature and at the regular intervals samples are removed, suspended in neutralizer solution and diluted as described above (example 2).
Aliquots of these suspended and diluted samples are plated on tryptic soy agar supplemented with 0.5% Tween 80 and then incubated for 24 h at 37° C. Surviving bacteria are counted.

[4] = fragrant acid (sodium salt) 0.125% w/w, 4-HBA 0, after 7 days
[5] = fragrant acid (sodium salt) 0.250% w/w, 4-HBA 0, after 7 days
[6] = fragrant acid (sodium salt) 0.125% w/w, 4-HBA 0, after 24 h
[7] = fragrant acid (sodium salt) 0.250% w/w, 4-HBA 0, after 24 h

Compound	Spores/ml [1]	Reduction factor [1]	Reduction of spore counts / sporicidal effect in water (in words) [1]	Sporicidal activity in cream (in words) ([2]; combined with cinnamic acid or anisic acid in cream at 0.125% concentration, within 7 days)	Reduction factor ([2]; no fragrant acid, 4-HBA 0.125% w/w, after 7 days)	Reduction factor ([3]; no fragrant acid, 4-HBA 0.125% w/w, bacterial counts after 24 h)	Reduction factor [2, 4]	Reduction factor [2, 5]	Reduction factor [3, 6]	Reduction factor [3, 7]
O=Cc1ccc(O)cc1 [4-hydroxybenzaldehyde]	>1.2 × 10^5 Spores/ml	<2	no significant sporicidal effect; also recorded: No significant reduction of spore counts	complete killing of spores	5.5	10	–	–	–	–
COc1ccc(C=O)cc1 [4-methoxy-benzaldehyde, 4-methoxybenzaldehyde]	4.68 × 10^4 Spores/ml	5	No significant reduction of spore counts	–	–	–	–	–	–	–
COc1ccc(C(=O)O)cc1 [Anisic acid, anisic acid]	–	–	–	–	–	–	1.4	12.5	1	5
O=C(O)/C=C/c1ccccc1 [Cinnamic acid, cinnamic acid]	–	–	–	–	–	–	1.0	1.1	2.0	10
